One test has as its system intracellular HBV DNA. The experiment in a line: Real-time PCR for intracellular HBV DNA in HepAD38 cells. The test is classed as cell-based, hepatitis B virus (HBV). The following applies: treated for 65 hours, intracellular HBV DNA by real-time PCR. As for the experimental part: HepAD38 cells were cultured in DMEM medium (Welgene) supplemented with 200 unit/mL penicillin, 200 μg/mL streptomycin, and 10% FBS. During maintenance and passage, the cells were cultured together with 0.4 μg/mL tetracycline. Two days before the treatment with compounds for inducing HBV replication was started, the medium was replaced with a tetracycline-free complete growth medium. […]
HepAD38 cells were treated with a compound for 65 hours and then recovered, and intracellular HBV DNA was extracted therefrom according to the protocol in the DNeasy Blood & Tissue Kit (Qiagen). The primers and probes used to quantify HBV DNA were 5′-[…]-3′, 5′-[…]-3′, and 5′-/56-FAM/TGT CCT GGT/ZEN/[…]/3IABKFQ/-3′. The HBV DNA was amplified by real-time PCR assay using LightCycler 480 (Roche) (J. Virol., 2018, 92(16):e00339-18). All of the processes were confirmed in duplicate.
On the technique in general: Real-time PCR tracks product formation cycle by cycle.

Test [1] addresses Protein (capsid assembly) (Hepatitis B virus genotype D subtype ayw, UniProt P03146). Briefly: Protein inhibition (capsid assembly inhibition), Table 1. It is filed as biochemical. Particulars: for EC50: NVR value of the same run in brackets, read-out: Protein EC50.
Setting [2] is: Hepatitis B virus, HePAD38, 65 h.
Setting [3] is: @30 μM, read-out: Protein % inhibition rate (@30 μM).

Structures are written as SMILES. Values joined by “and” are separate entries in the source; they are usually repeats but may differ in a detail not shown here. Identical values can stand only once. Like-named read-outs stand apart in the source and are kept apart here. A value given as a limit tells only on which side of the number the result lay.

Sequence of Protein (capsid assembly) (P03146 whole entry): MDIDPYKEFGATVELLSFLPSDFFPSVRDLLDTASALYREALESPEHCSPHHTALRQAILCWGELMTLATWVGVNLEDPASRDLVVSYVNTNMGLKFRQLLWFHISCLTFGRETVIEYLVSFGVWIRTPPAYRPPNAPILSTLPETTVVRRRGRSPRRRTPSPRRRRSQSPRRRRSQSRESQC

In the test on intracellular HBV DNA (setting [2]), `COc1ccc(N(Cc2nnc(C)n2C)C(=O)Nc2ccc(F)c(Cl)c2)cc1` [Example 15, 3-(3-Chloro-4-fluorophenyl)-1-((4,5-dimethyl-4H-1,2,4-triazol-3-yl)methyl)-1-(4-methoxyphenyl)urea] came in with an IC50 of more than 3.3 µM. In addition, in test [1] (setting [3]), the inhibition at 30 µM is 55.3%. For the same compound, the EC50 in test [1] is 29 µM.
`COc1ccc(N(Cc2nnc(C)n2-c2ccccc2)C(=O)Nc2ccc(F)c(Cl)c2)cc1` [Example 25, 3-(3-Chloro-4-fluorophenyl)-1-(4-methoxyphenyl)-1-((5-methyl-4-phenyl-4H-1,2,4-triazol-3-yl)methyl)urea] returned an IC50 in the test with intracellular HBV DNA (setting [2]) of more than 3.3 µM. The inhibition at 30 µM in test [1] (setting [3]) is -2%.
The matching figures for `COc1ccc(N(Cc2nnc(C(C)C)n2C)C(=O)Nc2ccc(F)c(Cl)c2)cc1` [Example 29, 3-(3-Chloro-4-fluorophenyl)-1-((5-isopropyl-4-methyl-4H-1,2,4-triazol-3-yl)methyl)-1-(4-methoxyphenyl)urea]: more than 3.3 µM and 1%.
`O=C(Nc1ccc(F)c(Cl)c1)N(Cc1nnc2n1CCCCCC2)c1ccc2c(c1)OCO2` [Example 30, 1-(Benzo[d][1,3]dioxol-5-yl)-3-(3-chloro-4-fluorophenyl)-1-((5,6,7,8,9,10-hexahydro-[1,2,4]triazolo[4,3-a]azocin-3-yl)methyl)urea] displayed an IC50 in the test on intracellular HBV DNA (setting [2]) of 0.74 µM. The inhibition at 30 µM in test [1] (setting [3]) was 32%. Besides, the EC50 in test [1] was 3.6 µM.
In the test with intracellular HBV DNA (setting [2]), `O=C(Nc1ccc(F)c(Cl)c1)N(Cc1nnc2n1CCCCC2)c1ccc2cc[nH]c2c1` [Example 10, 3-(3-Chloro-4-fluorophenyl)-1-(1H-indol-6-yl)-1-((6,7,8,9-tetrahydro-5H-[1,2,4]triazolo[4,3-a]azepin-3-yl)methyl)urea] registered a half-maximal inhibitory concentration (IC50) of more than 3.3 µM. Further, the inhibition at 30 µM in test [1] (setting [3]) is 85%.
Consider `COc1ccc(N(Cc2nnc3n2CCN(C(=O)OCc2ccccc2)CC3)C(=O)Nc2ccc(F)c(Cl)c2)cc1` [Example 38, Benzyl 3-((3-(3-chloro-4-fluorophenyl)-1-(4-methoxyphenyl)ureido)methyl)-8,9-dihydro-5H-[1,2,4]triazolo[4,3-d][1,4]diazepine-7(6H)-carboxylate], for which, in the test on intracellular HBV DNA (setting [2]), the IC50 was more than 3.3 µM. The inhibition at 30 µM in test [1] (setting [3]) was -1%.
The compound `CC(C)(C)OC(=O)n1ccc2cc(N(Cc3nnc4n3CCCCC4)C(=O)Nc3ccc(F)c(Cl)c3)ccc21` [Example 17, tert-Butyl 5-(3-(3-chloro-4-fluorophenyl)-1-((6,7,8,9-tetrahydro-5H-[1,2,4]triazolo[4,3-a]azepin-3-yl)methyl)ureido)-1H-indole-1-carboxylate] displayed an IC50 in the test on intracellular HBV DNA (setting [2]) of more than 3.3 µM. Further, the inhibition at 30 µM in test [1] (setting [3]) stood at 92.6%. Moreover, in test [1], the EC50 came to 13 µM.
Regarding `COc1ccc(N(Cc2nnc3n2CCCCC3)C(=O)N(C)c2ccc(F)c(Cl)c2)cc1` [Example 9, 1-(3-Chloro-4-fluorophenyl)-3-(4-methoxyphenyl)-1-methyl-3-((6,7,8,9-tetrahydro-5H-[1,2,4]triazolo[4,3-a]azepin-3-yl)methyl)urea], the IC50 in the test on intracellular HBV DNA (setting [2]) was found to be 0.75 µM. Further, the inhibition at 30 µM in test [1] (setting [3]) turned out to be 5%.
Turning to `O=C(NC1CCCC1)N(Cc1nnc2n1CCCCC2)c1ccc2c(c1)OCO2` [Example 11, 1-(Benzo[d][1,3]dioxol-5-yl)-3-cyclopentyl-1-((6,7,8,9-tetrahydro-5H-[1,2,4]triazolo[4,3-a]azepin-3-yl)methyl)urea], the IC50 with intracellular HBV DNA (setting [2]) was more than 3.3 µM. Besides, in test [1] (setting [3]), the inhibition at 30 µM stood at 4%.
Consider `CN(C)c1ccc(N(Cc2nnc3n2CCCCC3)C(=O)Nc2ccc(F)c(Cl)c2)cc1` [Example 34, 3-(3-Chloro-4-fluorophenyl)-1-(4-(dimethylamino)phenyl)-1-((6,7,8,9-tetrahydro-5H-[1,2,4]triazolo[4,3-a]azepin-3-yl)methyl)urea], for which the IC50 with intracellular HBV DNA (setting [2]) is more than 3.3 µM. For the same compound, the inhibition at 30 µM in test [1] (setting [3]) is -7%.
In turn, `COc1ccc(N(Cc2nnc(C)n2C2CCCC2)C(=O)Nc2ccc(F)c(Cl)c2)cc1` [Example 32, 3-(3-Chloro-4-fluorophenyl)-1-((4-cyclopentyl-5-methyl-4H-1,2,4-triazol-3-yl)methyl)-1-(4-methoxyphenyl)urea] yielded a concentration for half-maximal inhibition (IC50) with intracellular HBV DNA (setting [2]) of 0.32 µM. Moreover, the inhibition at 30 µM in test [1] (setting [3]) amounted to 23%. Also, in test [1], the EC50 is 4.9 µM.
In the test on intracellular HBV DNA (setting [2]), `COC(=O)Cc1nnc(CN(C(=O)Nc2ccc(F)c(Cl)c2)c2ccc3c(c2)OCO3)[nH]1` [Example 45, Methyl 2-(5-((1-(benzo[d][1,3]dioxol-5-yl)-3-(3-chloro-4-fluorophenyl)ureido)methyl)-4H-1,2,4-triazol-3-yl)acetate] showed a concentration for half-maximal inhibition (IC50) of more than 3.3 µM. The inhibition at 30 µM in test [1] (setting [3]) is 6%.
`O=C(Nc1ccc(F)c(Cl)c1)N(Cc1nnc2n1CCCCC2)c1ncco1` [Example 39, 3-(3-Chloro-4-fluorophenyl)-1-(oxazol-2-yl)-1-((6,7,8,9-tetrahydro-5H-[1,2,4]triazolo[4,3-a]azepin-3-yl)methyl)urea] displayed an IC50 with intracellular HBV DNA (setting [2]) of more than 3.3 µM. The inhibition at 30 µM in test [1] (setting [3]) came out at 100%. Further, the EC50 in test [1] was found to be 5.7 µM.
Taken in the same sequence, the figures for `O=C(Nc1ccc(F)c(Cl)c1)N(Cc1nnc2n1CCCCC2)c1ccc2[nH]ccc2c1` [Example 18, 3-(3-Chloro-4-fluorophenyl)-1-(1H-indol-5-yl)-1-((6,7,8,9-tetrahydro-5H-[1,2,4]triazolo[4,3-a]azepin-3-yl)methyl)urea] were more than 3.3 µM, 96.8% and 4.8 µM.
In the test on intracellular HBV DNA (setting [2]), `O=C(Nc1ccc(F)c(Cl)c1)N(Cc1nnc2n1CCCCC2)C1CCCC1` [Example 6, 3-(3-Chloro-4-fluorophenyl)-1-cyclopentyl-1-((6,7,8,9-tetrahydro-5H-[1,2,4]triazolo[4,3-a]azepin-3-yl)methyl)urea] displayed an IC50 of 1.57 µM. In test [1] (setting [3]), the inhibition at 30 µM was 77%. Moreover, in test [1], the EC50 turned out to be 1.2 µM.
The matching figures for `COc1ccc(N(Cc2nnc(C3CCCC3)n2C)C(=O)Nc2ccc(F)c(Cl)c2)cc1` [Example 31, 3-(3-Chloro-4-fluorophenyl)-1-((5-cyclopentyl-4-methyl-4H-1,2,4-triazol-3-yl)methyl)-1-(4-methoxyphenyl)urea]: 3.48 µM, -4% and 16 µM.
In turn, `O=C(Nc1ccccc1Cl)N(Cc1nnc2n1CCCCC2)c1ccc2c(c1)OCO2` [Example 5, 1-(Benzo[d][1,3]dioxol-5-yl)-3-(2-chlorophenyl)-1-((6,7,8,9-tetrahydro-5H-[1,2,4]triazolo[4,3-a]azepin-3-yl)methyl)urea] had an IC50 with intracellular HBV DNA (setting [2]) of more than 3.3 µM. In addition, the inhibition at 30 µM in test [1] (setting [3]) amounted to 9%.
Consider `O=C(Nc1ccc(F)c(Cl)c1)N(Cc1nnc2n1CCCCC2)c1cccc(C(F)(F)F)c1` [Example 21, 3-(3-Chloro-4-fluorophenyl)-1-((6,7,8,9-tetrahydro-5H-[1,2,4]triazolo[4,3-a]azepin-3-yl)methyl)-1-(3-(trifluoromethyl)phenyl)urea], for which, in the test on intracellular HBV DNA (setting [2]), the IC50 was more than 3.3 µM. Moreover, the EC50 in test [1] is 11 µM. In test [1] (read-out: Protein % inhibition rate (@30 μM), @30 μM), the inhibition at 30 µM worked out at 4%.
For `N#Cc1cccc(N(Cc2nnc3n2CCCCC3)C(=O)Nc2ccc(F)c(Cl)c2)c1` [Example 19, 3-(3-Chloro-4-fluorophenyl)-1-(3-cyanophenyl)-1-((6,7,8,9-tetrahydro-5H-[1,2,4]triazolo[4,3-a]azepin-3-yl)methyl)urea], the IC50 with intracellular HBV DNA (setting [2]) is more than 3.3 µM. The inhibition at 30 µM in test [1] (setting [3]) stood at 94%.
As for `CNc1ccc(N(Cc2nnc3n2CCCCC3)C(=O)Nc2ccc(F)c(Cl)c2)cc1` [Example 14, 3-(3-Chloro-4-fluorophenyl)-1-(4-(methylamino)phenyl)-1-((6,7,8,9-tetrahydro-5H-[1,2,4]triazolo[4,3-a]azepin-3-yl)methyl)urea], the concentration for half-maximal inhibition (IC50) in the test with intracellular HBV DNA (setting [2]) is more than 0.55 µM. The inhibition at 30 µM in test [1] (setting [3]) came to 92%. In test [1], the EC50 was 2.8 µM.
As to `Cn1ccc(N(Cc2nnc3n2CCCCC3)C(=O)Nc2ccc(F)c(Cl)c2)n1` [Example 35, 3-(3-Chloro-4-fluorophenyl)-1-(1-methyl-1H-pyrazol-3-yl)-1-((6,7,8,9-tetrahydro-5H-[1,2,4]triazolo[4,3-a]azepin-3-yl)methyl)urea], the IC50 with intracellular HBV DNA (setting [2]) is more than 3.3 µM. For the same compound, the inhibition at 30 µM in test [1] (setting [3]) worked out at 63.1%.
For `O=C(Nc1cc(F)c(F)c(F)c1)c1ccc(F)c(S(=O)(=O)N2CCC(O)CC2)c1` [NVR, reference compound], in the test with intracellular HBV DNA (read-out: IC50), the IC50 came out at 0.4 µM. The half-maximal effective concentration (EC50) in test [1] is 4.1 µM and 5.2 µM and 4.9 µM and 3.9 µM and 4.8 µM.
In the test with intracellular HBV DNA (setting [2]), `N#Cc1ccc(N(Cc2nnc3n2CCCCC3)C(=O)Nc2ccc(F)c(Cl)c2)cc1` [Example 28, 3-(3-Chloro-4-fluorophenyl)-1-(4-cyanophenyl)-1-((6,7,8,9-tetrahydro-5H-[1,2,4]triazolo[4,3-a]azepin-3-yl)methyl)urea] had a 50% inhibitory concentration (IC50) of 0.604 µM. Moreover, in test [1] (setting [3]), the inhibition at 30 µM stood at 36%. For the same compound, in test [1], the EC50 came out at 4 µM.
`COc1ccc(N(Cc2nnc(C)n2C2CC2)C(=O)Nc2ccc(F)c(Cl)c2)cc1` [Example 37, 3-(3-Chloro-4-fluorophenyl)-1-((4-cyclopropyl-5-methyl-4H-1,2,4-triazol-3-yl)methyl)-1-(4-methoxyphenyl)urea] returned an IC50 with intracellular HBV DNA (setting [2]) of more than 3.3 µM. Also, the inhibition at 30 µM in test [1] (setting [3]) turned out to be 84.1%.

One may read the IC50 as the concentration that gives 50% inhibition. For orientation: inhibition means the relative decrease from the control value, in per cent. The term EC50 denotes the concentration at which the effect is half-maximal.

Values taken from US20250235462A1, “NOVEL CAPSID ASSEMBLY INHIBITORS” (AM SCIENCES INC, priority 2021, published 2025).
